{"source": "paper PMC3549917", "about": "“Characterization of two antimicrobial peptides produced by a halotolerant Bacillus subtilis strain SK.DU.4 isolated from a rhizosphere soil sample” (AMB Express, 2013)", "test_in_all_cases": "Well diffusion assay, inhibition spectrum", "type_in_all_cases": "cell-based", "key": {"B. subtilis MTCC121": {"system": "B. subtilis MTCC121", "conditions": "Polymyxin B at 300 U", "description": "(§1) The bacteriocin activity was determined by well diffusion assay. The strain was grown for 24 h in 200 ml nutrient broth (NB, Himedia) using 500 ml flask and subsequently cells were removed by centrifugation (8000 rpm for 20 min, 4°C). The supernatant obtained was filtered by using 0.22 μm filter (Millipore), diluted by two fold and used to test the activity as mentioned earlier (Singh et al. [2012]). The antimicrobial peptide production was also tested by growing the strain in minimal medium. To examine the antimicrobial activity, S. aureus cells were processed for scanning electron micrograph (SEM) as described by earlier (Singh et al. [2012]). Growth curve was prepared to examine the bacteriocin production along with the growth of strain SK.DU4.\n(§2) Although the antimicrobial peptides were produced in NB for large scale preparation, the influence of different carbon and nitrogen sources on peptides production was tested using minimal medium. […] The optimum pH for the production of antimicrobial peptides was 7.2 and there was no significant change in pH was observed during the production of antimicrobial peptides. The bacteriocin-like peptide was extracted from CFB by hydrophobic interaction chromatography using Diaion HP-20 beads and purified by a combination of chromatography techniques as described previously (Singh et al. [2012]). Subsequently, the purified peptide was tested for antimicrobial activity against an array of Gram-positive and Gram-negative bacteria, yeasts and fungi strains using well diffusion assays."}, "L. monocytogenes MTCC839": {"system": "L. monocytogenes MTCC839", "conditions": "100 μl of the lowest dilution inhibiting test strain, similar results in three individual experiments", "description": "as §1, §2"}, "S. mutans MTCC497": {"system": "S. mutans MTCC497", "conditions": "lipopeptide combined with bacteriocin-like peptide", "description": "as §1, §2"}, "M. luteus MTCC106": {"system": "M. luteus MTCC106", "conditions": "100 μl of the lowest dilution inhibiting test strain, similar results in three individual experiments", "description": "as §1, §2"}}, "note": "Where no end group is shown, it is not given here.", "data": [{"substance": "DYNQPNS (also: lariat or depsi (positions not given here)) [Lipopeptide, cyclic iturin-like lipopeptide (m/z 1056 Da), β-hydroxy fatty acid linked to Ser of heptapeptide, from strain SK.DU.4]", "values": [{"measurement": "Inhibition activity", "setting": "B. subtilis MTCC121", "value": "inhibited growth"}, {"measurement": "inhibition zone", "setting": "L. monocytogenes MTCC839", "value": 11, "unit": "mm"}, {"measurement": "growth inhibition in combination with bacteriocin-like peptide", "setting": "S. mutans MTCC497", "value": "inhibited the growth"}, {"measurement": "inhibition zone", "setting": "M. luteus MTCC106", "value": 11, "unit": "mm"}]}]}
